Patent US20250326771A1, “PIPERAZINE DERIVATIVES USEFUL IN HIV THERAPY” (VIIV HEALTHCARE COMPANY, priority 2022, published 2025)

Key:
cell-associated HIV RNA = conditions: primary cells / resting CD4+ T cells; cited from earlier work
[1] = system: Jurkat HIV-luciferase clones; conditions: HIV latency reversal studies; cited from earlier work
p100/p52 = conditions: cited from earlier work
[2] = system: Jurkat HIV-luciferase clones; assay: Jurkat latency reversal assay; format: cell-based; conditions: Homo sapiens, 48 h; Jurkat latency reversal assay potency; read-out: Jurkat pEC50 (converted)
How it was run: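 A 1:1:1 mix of three Jurkat clones (C16, 115, N6) carrying integrated luciferase-expressing HIV proviruses, 5,000 cells/well, was exposed to 3-fold, 14-point compound titrations from 10 μM at 0.5% DMSO for 48 h at 37° C. Steady-Glo luminescence was fitted by four-parameter logistic regression to give EC50 and maximal percent activation relative to vehicle.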

cIAP1-BIR3 = cIAP1-BIR3 (Homo sapiens (Human), UniProt Q13490); assay: BIR binding assay (FRET competition), cIAP1 BIR3
How it was run: (§1)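 Compounds tested as 15-point, 3-fold series displacing 200 nM AlexaFluor647-labelled SMAC peptide from His-tagged BIR domain (cIAP1-BIR3 50 nM; cIAP1-BIR2 and cIAP2-BIR2 325 nM; XIAP-BIR3 100 nM), pH 7.4, 60 min. Eu-W1024 (2 nM) added 30 min; emission ratio fitted for IC50.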

cIAP1-BIR2 = cIAP1-BIR2 (Homo sapiens (Human), UniProt Q13490); assay: BIR binding assay (FRET competition), cIAP1 BIR2
How it was run: as §1

cIAP2-BIR3 = cIAP2-BIR3 (Homo sapiens (Human), UniProt Q13489); assay: BIR binding assay (FRET competition), cIAP2 BIR3
cIAP2-BIR2 = cIAP2-BIR2 (Homo sapiens (Human), UniProt Q13489); assay: BIR binding assay (FRET competition), cIAP2 BIR2
How it was run: as §1

XIAP-BIR3 = XIAP-BIR3 (Homo sapiens (Human), UniProt P98170); assay: BIR binding assay (FRET competition), XIAP BIR3
How it was run: as §1

XIAP-BIR2 = XIAP-BIR2 (Homo sapiens (Human), UniProt P98170); assay: BIR binding assay (FRET competition), XIAP BIR2; conditions: FRET competition binding; read-out: XIAP BIR2 (pIC50) (converted)
How it was run: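 Competitive TR-FRET used His-tagged XIAP-BIR2 (200 nM) and 200 nM AlexaFluor647-labelled AVPIAQKSE SMAC peptide in HEPES buffer pH 7.4 with CHAPS, glycerol and DTT, incubated 60 min before 30 min with 2 nM Eu-W1024. The 615/665 nm ratio from a 15-point, 3-fold series was fit with a four-parameter model for IC50/pIC50.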

XIAP-BIR3, sequence (P98170 241-356): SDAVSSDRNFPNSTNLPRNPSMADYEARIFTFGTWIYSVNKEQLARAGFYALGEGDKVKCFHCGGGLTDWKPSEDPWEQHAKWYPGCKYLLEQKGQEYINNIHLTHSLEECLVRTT
cIAP2-BIR3, sequence (Q13489 238-349): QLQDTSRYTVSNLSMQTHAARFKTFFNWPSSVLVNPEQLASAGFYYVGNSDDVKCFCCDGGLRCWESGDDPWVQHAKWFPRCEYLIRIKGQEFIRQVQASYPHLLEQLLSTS
cIAP1-BIR3, sequence (Q13490 253-363): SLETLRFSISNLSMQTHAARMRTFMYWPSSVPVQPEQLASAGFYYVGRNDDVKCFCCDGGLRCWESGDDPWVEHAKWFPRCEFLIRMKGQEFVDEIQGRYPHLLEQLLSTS
cIAP2-BIR2, sequence (Q13489 158-242): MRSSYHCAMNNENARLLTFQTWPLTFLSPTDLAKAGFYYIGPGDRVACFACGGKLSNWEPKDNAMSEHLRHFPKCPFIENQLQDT
cIAP1-BIR2, sequence (Q13490 173-257): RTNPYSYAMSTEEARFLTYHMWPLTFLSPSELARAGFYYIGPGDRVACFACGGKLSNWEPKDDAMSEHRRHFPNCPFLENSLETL
XIAP-BIR2, sequence (P98170 124-240): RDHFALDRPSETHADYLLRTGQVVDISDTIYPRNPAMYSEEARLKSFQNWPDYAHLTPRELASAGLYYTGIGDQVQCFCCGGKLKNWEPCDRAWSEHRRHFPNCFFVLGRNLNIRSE

| SMILES | HIV caRNA induction (cell-associated HIV RNA) | potency in Jurkat [1] | p100-p52 conversion (p100/p52) | EC50 [2] [nM] | IC50 (cIAP1-BIR3) [nM] | cIAP1 BIR3 vs BIR2 separation window (cIAP1-BIR3; fold separation (FS) for cIAP1) | IC50 (cIAP1-BIR2) [nM] | IC50 (cIAP2-BIR3) [nM] | cIAP2 BIR3 vs BIR2 separation window (cIAP2-BIR3; fold separation (FS) for cIAP2) | IC50 (cIAP2-BIR2) [nM] | IC50 (XIAP-BIR3) [nM] | XIAP BIR3 vs BIR2 separation window (XIAP-BIR3; fold separation (FS) for XIAP) | IC50 (XIAP-BIR2) [nM] |
| --- | --- | --- | --- | --- | --- | --- | --- | --- | --- | --- | --- | --- | --- |
| CN[C@@H](C)C(=O)N[C@H](C(=O)N1CCC[C@H]1C(=O)N[C@H]1c2ccccc2C[C@H]1OCC#CC#CCO[C@@H]1Cc2ccccc2[C@@H]1NC(=O)[C@@H]1CCCN1C(=O)[C@@H](NC(=O)[C@H](C)NC)C1CCCCC1)C1CCCCC1 [AZD5582] | increase in cell-associated HIV RNA expression | – | – | – | – | – | – | – | – | – | – | – | – |
| CC[C@H](NC(=O)[C@H](C)NC)C(=O)N1C[C@@H](O)C[C@H]1Cc1c(-c2[nH]c3cc(F)ccc3c2C[C@@H]2C[C@H](O)CN2C(=O)[C@H](CC)NC(=O)[C@H](C)NC)[nH]c2cc(F)ccc12 [Birinapant TL32711, Birinapant] | not potent | not potent | not potent | – | – | – | – | – | – | – | – | – | – |
| C[C@@H]1CN(CC(=O)N2CC(C)(C)c3[nH]c(=O)c(Cc4ccc(F)cc4)cc32)[C@@H](CN2CCC(CN(C)Cc3ccc(CN(C)CC4CCN(C[C@H]5CN[C@H](C)CN5CC(=O)N5CC(C)(C)c6[nH]c(=O)c(Cc7ccc(F)cc7)cc65)CC4)cc3)CC2)CN1 [Example 100, 1,1′-(2,2′-((3R,3′R,6R,6′R)-(((((1,4-phenylenebis(methylene))bis(methylazanediyl))bis(methylene))bis(piperidine-4,1-diyl))bis(methylene))bis(3-methylpiperazine-6,1-diyl))bis(acetyl))bis(6-(4-fluorobenzyl)-3,3-dimethyl-1,2,3,4-tetrahydro-5H-pyrrolo[3,2-b]pyridin-5-one)] | – | – | – | 0.49 to 12.6 | 7.94 to 15.8 | +++ (10,000>FS>1,000) | 1000 to 3160 | 7.94 to 15.8 | +++ (10,000>FS>1,000) | 3160 to 10000 | 15.8 to 31.6 | ++++ (FS>10,000) | 10000 to 51300 |
